In US20220274980A1, “PHARMACOLOGICAL INHIBITORS OF THE ENL YEATS DOMAIN” (priority 2019, published 2022):

Assays:
[1] = Half-life in mouse liver microsomes; format: in vitro ADME; conditions: read-out: t1/2 (min) mouse liver microsomes
[2] = target: T1, ENL localization to chromatin of target gene promoters (Homo sapiens, UniProt Q03111); assay: ENL ChIP-qPCR in MV4;11 cells; format: cell-based; conditions: HOX intergenic region as negative control locus
T1 construct: 11 cells; endogenous in cells; host or cells: MV4;11
T1 sequence (Q03111 1-559): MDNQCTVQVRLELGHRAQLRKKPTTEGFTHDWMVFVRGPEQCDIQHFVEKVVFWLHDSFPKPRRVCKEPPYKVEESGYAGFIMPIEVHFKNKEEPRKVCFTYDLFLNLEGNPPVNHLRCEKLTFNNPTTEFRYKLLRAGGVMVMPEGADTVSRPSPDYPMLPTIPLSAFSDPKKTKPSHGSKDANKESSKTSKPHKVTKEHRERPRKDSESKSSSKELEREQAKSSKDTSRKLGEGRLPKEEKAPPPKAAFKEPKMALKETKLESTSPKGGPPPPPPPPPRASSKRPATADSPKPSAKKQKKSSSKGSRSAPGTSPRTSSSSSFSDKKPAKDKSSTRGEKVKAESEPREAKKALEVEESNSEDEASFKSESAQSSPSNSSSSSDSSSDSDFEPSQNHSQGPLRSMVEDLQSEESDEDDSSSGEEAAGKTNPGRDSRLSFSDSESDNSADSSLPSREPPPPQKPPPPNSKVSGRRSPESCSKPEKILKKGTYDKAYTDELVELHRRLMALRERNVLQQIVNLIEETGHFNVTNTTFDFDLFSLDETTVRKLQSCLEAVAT
Procedure: ChIP-qPCR. Chromatin immunoprecipitation (ChIP)-qPCR of ENL was performed in MV4; 11 cells using 50 million cells per treatment. Crosslinking was performed in batches of 50 million cells in 50 mL tissue culture media by addition of 1/10 volume of 10× crosslinking solution (11% formaldehyde, 50 mM HEPES pH 7.3, 100 mM NaCl, 1 mM EDTA pH 8.0, 0.5 mM EGTA ph 8.0). After 10 min of crosslinking at room temperature, formaldehyde was quenched with 125 mM glycine, cells were then washed three times in PBS pH 7.4, flash frozen in liquid nitrogen, and stored at −80° C. Frozen pellets were thawed on ice, resuspended in cold lysis buffer 1 (LB1; 5 mL per 50 million cells; 50 mM HEPES pH 7.3, 140 mM NaCl, 1 mM EDTA, 10% glycerol, 0.5% NP-40, and 0.25% Triton X-100, Roche protease inhibitor cocktail), and rotated for 10 minutes at 4° C. LB1 was removed and pelletswere resuspended in cold lysis buffer 2 (LB2; 5 mL per 50 million cells; 10 mM Tris-HCl pH 8.0, 200 mM NaCl, 1 mM EDTA pH 8.0 and 0.5 mM EGTA pH 8.0, Roche protease inhibitor cocktail) and rotated for 10 minutes at 4° C. LB2 was removed and pellets were resuspended in cold sonication buffer (1.5 mL per 50 million cells; 50 mM HEPES pH 7.3, 140 mM NaCl, 1 mM EDTA, 1 mM EGTA, 1% Triton X-100, 0.1% Na-deoxycholate, 0.1% SDS, Roche protease inhibitor cocktail). […] Results were quantified as percentage of the input sample.

[3] = tested on: ENL target gene expression (MYC, HOXA9); assay: qRT-PCR of ENL target gene expression; format: cell-based
From the text: Quantitative reverse-transcriptase PCR (qRT-PCR). […] The ddCt method was used to quantify fold change differences in gene expression between control and treated samples (using expression of B2M for normalization).

SMILES: O=C(NC1CCC1)c1ccc2nc(-c3cccc(NS(=O)(=O)NCCN4CCCCC4)c3)cn2c1 [Compound 93]
- half-life [1]: 9.98 min
- localization of ENL to chromatin of target gene promoters by ChIP-qPCR [2]: prevents localization of ENL to chromatin of target gene promoters
- suppression of ENL target gene expression [3]: Suppression of ENL target gene expression
